From ChEMBL document CHEMBL1134226, “The amide hydrogen of (-)-indolactam-V and benzolactam-V8's plays a critical role in protein kinase C binding and tumor-promoting activities” (Bioorg Med Chem Lett, 2001)

Columns and labels:
HL-60 [1] = test: Tested for superoxide (O2-) generation inducing activity in differentiated HL-60 cells at 10e-6 M; type: functional, Homo sapiens
[2] = biological target: Protein kinase C theta type (Homo sapiens, UniProt Q04759); test: Inhibition of [3H]phorbol-12,13-dibutyrate (PDBu) binding to Protein kinase C theta C1b domain
Sequence of Protein kinase C theta type (Q04759 whole entry, the tested form may be a part): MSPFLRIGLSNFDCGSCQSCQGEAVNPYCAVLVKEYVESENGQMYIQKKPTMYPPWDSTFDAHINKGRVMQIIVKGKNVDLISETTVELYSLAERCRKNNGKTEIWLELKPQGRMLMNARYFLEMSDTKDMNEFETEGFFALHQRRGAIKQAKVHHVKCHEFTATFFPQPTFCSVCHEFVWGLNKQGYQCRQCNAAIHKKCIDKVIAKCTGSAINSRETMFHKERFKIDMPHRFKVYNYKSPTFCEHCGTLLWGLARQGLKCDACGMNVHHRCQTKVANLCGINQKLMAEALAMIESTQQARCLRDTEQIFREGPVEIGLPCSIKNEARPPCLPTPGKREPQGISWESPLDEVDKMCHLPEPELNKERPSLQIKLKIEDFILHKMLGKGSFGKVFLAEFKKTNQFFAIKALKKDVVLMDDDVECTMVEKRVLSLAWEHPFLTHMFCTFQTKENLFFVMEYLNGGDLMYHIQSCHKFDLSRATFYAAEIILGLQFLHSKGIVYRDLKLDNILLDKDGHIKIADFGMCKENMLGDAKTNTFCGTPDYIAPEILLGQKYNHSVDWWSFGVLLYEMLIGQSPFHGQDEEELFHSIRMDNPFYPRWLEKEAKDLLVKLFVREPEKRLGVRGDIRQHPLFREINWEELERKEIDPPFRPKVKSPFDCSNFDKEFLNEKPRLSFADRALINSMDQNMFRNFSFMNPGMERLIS

[3] = biological target: T1, Protein kinase C epsilon type (Homo sapiens, UniProt Q02156); test: Inhibition of [3H]phorbol-12,13-dibutyrate (PDBu) binding to Protein kinase C epsilon C1a domain
T1 sequence (Q02156 whole entry): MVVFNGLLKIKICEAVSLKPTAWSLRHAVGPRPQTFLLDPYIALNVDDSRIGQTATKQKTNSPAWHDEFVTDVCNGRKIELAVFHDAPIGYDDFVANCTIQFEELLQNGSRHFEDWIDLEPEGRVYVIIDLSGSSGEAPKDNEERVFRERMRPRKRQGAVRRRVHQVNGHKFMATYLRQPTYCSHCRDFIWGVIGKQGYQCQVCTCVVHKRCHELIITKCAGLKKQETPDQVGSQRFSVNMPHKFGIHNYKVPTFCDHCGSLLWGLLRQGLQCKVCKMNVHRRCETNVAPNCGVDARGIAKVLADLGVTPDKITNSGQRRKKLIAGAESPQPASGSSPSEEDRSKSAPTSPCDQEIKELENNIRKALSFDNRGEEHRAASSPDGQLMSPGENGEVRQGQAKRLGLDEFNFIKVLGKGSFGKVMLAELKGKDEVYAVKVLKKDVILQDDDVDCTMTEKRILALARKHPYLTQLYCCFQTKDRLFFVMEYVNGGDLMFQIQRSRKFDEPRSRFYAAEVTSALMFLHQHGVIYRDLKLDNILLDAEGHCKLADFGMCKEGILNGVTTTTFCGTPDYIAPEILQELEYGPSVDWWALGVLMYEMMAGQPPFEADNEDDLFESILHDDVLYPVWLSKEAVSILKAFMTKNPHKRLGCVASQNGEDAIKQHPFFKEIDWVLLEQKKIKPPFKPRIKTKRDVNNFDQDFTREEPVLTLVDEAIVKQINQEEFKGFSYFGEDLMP

HL-60 [4] = test: Tested for superoxide (O2-) generation inducing activity in differentiated HL-60 cells at 10e-5 M; type: functional, Homo sapiens
[5] = biological target: T2, Protein kinase C gamma type (Homo sapiens, UniProt P05129); test: Inhibition of [3H]phorbol-12,13-dibutyrate (PDBu) binding to Protein kinase C gamma C1b domain
[6] = biological target: T1, Protein kinase C epsilon type; test: Inhibition of [3H]phorbol-12,13-dibutyrate (PDBu) binding to Protein kinase C epsilon C1b domain
[7] = biological target: T3, Protein kinase C delta type (Homo sapiens, UniProt Q05655); test: Inhibition of [3H]phorbol-12,13-dibutyrate (PDBu) binding to Protein kinase C delta C1b domain
T3 sequence (Q05655 whole entry, the tested form may be a part): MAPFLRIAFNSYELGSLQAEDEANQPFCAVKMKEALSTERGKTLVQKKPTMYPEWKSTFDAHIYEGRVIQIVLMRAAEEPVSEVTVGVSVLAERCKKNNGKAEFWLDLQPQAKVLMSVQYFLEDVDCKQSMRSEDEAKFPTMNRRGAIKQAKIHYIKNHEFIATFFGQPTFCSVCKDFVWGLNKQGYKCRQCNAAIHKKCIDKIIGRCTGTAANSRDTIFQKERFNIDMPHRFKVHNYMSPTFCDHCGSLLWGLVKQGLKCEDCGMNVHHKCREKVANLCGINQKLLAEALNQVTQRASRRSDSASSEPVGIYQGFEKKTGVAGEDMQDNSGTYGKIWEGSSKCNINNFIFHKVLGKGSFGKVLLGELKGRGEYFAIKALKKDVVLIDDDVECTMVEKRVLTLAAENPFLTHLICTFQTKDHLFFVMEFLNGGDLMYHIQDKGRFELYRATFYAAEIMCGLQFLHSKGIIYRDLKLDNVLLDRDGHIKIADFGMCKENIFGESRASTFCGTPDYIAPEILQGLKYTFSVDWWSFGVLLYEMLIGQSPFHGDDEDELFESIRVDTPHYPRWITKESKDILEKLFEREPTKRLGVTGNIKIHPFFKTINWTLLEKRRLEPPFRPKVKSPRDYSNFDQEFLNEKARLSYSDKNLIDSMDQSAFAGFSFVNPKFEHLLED

[8] = biological target: T4, Protein kinase C beta type (Homo sapiens, UniProt P05771); test: Inhibition of [3H]phorbol-12,13-dibutyrate (PDBu) binding to Protein kinase C beta C1b domain
Target sequence in this assay (P05771 whole entry, looked up, the tested form may be a part): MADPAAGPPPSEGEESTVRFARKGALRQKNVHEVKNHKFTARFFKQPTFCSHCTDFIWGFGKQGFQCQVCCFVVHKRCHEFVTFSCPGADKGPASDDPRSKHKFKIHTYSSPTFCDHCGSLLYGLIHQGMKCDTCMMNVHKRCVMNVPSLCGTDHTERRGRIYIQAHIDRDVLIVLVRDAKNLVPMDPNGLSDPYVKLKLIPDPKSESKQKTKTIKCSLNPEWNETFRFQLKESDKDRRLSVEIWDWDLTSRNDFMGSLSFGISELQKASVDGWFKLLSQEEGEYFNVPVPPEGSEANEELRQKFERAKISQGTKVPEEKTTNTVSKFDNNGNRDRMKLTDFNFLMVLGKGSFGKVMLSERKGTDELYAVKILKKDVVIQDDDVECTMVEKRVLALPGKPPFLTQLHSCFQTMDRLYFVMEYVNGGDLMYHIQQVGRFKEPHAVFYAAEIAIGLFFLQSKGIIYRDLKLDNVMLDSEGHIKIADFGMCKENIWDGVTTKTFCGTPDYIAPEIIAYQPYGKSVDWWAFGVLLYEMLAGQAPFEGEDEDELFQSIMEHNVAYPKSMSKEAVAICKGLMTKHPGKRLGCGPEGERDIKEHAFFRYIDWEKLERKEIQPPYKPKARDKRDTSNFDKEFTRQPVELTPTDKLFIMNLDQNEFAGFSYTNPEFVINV

HL-60 [9] = test: Tested for superoxide (O2-) generation inducing activity in differentiated HL-60 cells at 10e-7 M; type: functional, Homo sapiens
Raji (Homo sapiens) [10] = test: Tested for epstein barr virus early antigen (EBV-EA) inducing activity in Raji cells at 10e-6 M
[11] = biological target: T5, Protein kinase C eta type (Homo sapiens, UniProt P24723); test: Inhibition of [3H]phorbol-12,13-dibutyrate (PDBu) binding to Protein kinase C eta C1a domain
T5 sequence (P24723 whole entry, the tested form may be a part): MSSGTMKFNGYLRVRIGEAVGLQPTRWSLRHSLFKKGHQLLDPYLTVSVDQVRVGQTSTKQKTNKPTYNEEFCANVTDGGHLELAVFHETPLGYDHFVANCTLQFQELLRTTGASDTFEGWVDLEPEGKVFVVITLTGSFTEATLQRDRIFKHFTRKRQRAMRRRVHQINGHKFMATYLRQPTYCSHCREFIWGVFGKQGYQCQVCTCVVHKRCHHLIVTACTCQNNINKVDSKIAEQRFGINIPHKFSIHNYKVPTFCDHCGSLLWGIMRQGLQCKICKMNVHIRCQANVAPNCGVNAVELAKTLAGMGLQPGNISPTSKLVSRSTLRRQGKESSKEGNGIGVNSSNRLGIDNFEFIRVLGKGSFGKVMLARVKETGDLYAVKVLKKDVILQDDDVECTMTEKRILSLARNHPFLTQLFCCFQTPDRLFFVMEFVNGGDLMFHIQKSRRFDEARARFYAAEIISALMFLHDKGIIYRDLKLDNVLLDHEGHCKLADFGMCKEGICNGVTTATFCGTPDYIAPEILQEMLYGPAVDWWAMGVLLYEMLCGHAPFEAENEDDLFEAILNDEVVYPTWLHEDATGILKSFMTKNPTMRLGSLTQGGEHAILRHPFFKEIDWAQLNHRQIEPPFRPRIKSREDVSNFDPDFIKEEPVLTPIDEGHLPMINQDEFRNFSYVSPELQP

Raji (Homo sapiens) [12] = test: Tested for epstein barr virus early antigen (EBV-EA) inducing activity in Raji cells at 10e-4.5 M
[13] = biological target: T4, Protein kinase C beta type; test: Inhibition of [3H]phorbol-12,13-dibutyrate (PDBu) binding to Protein kinase C beta C1a
Target sequence in this assay (P05771 whole entry, the tested form may be a part): as the sequence (P05771 whole entry, looked up, the tested form may be a part) above

[14] = biological target: T6, Protein kinase C alpha type (Homo sapiens, UniProt P17252); test: Inhibition of [3H]phorbol-12,13-dibutyrate (PDBu) binding to Protein kinase C alpha C1a domain
[15] = biological target: T3, Protein kinase C delta type; test: Inhibition of [3H]phorbol-12,13-dibutyrate (PDBu) binding to Protein kinase C delta C1a domain
Raji (Homo sapiens) [16] = test: Tested for epstein barr virus early antigen (EBV-EA) inducing activity in Raji cells at 10e-5 M
[17] = biological target: T6, Protein kinase C alpha type; test: Inhibition of [3H]phorbol-12,13-dibutyrate (PDBu) binding to Protein kinase C alpha C1b domain
[18] = biological target: T5, Protein kinase C eta type; test: Inhibition of [3H]phorbol-12,13-dibutyrate (PDBu) binding to Protein kinase C eta C1b domain
[19] = biological target: T2, Protein kinase C gamma type; test: Inhibition of [3H]phorbol-12,13-dibutyrate (PDBu) binding to Protein kinase C gamma C1a domain
HL-60 [20] = test: Tested for superoxide (O2-) generation inducing activity in differentiated HL-60 cells at 10e-4 M; type: functional, Homo sapiens
HL-60 [21] = test: Tested for epstein barr virus early antigen (EBV-EA) inducing activity in […] at 10e-7 M; type: functional, Homo sapiens

Ki [2] [nM]	Ki [3] [nM]	Ki [5] [nM]	Ki [6] [nM]	Ki [7] [nM]	Ki [8] [nM]	Ki [11] [nM]	Ki [13] [nM]	Ki [14] [nM]	Ki [15] [nM]	Ki [17] [nM]	Ki [18] [nM]	Ki [19] [nM]	SMILES	Activity (HL-60 [1]) [nM min-1 ml-1]	Activity (HL-60 [4]) [nM min-1 ml-1]	Activity (HL-60 [9]) [nM min-1 ml-1]	Activity (Raji (Homo sapiens) [10]) [%]	Activity (Raji (Homo sapiens) [12]) [%]	Activity (Raji (Homo sapiens) [16]) [%]	other results
13.2	8360	151	13.1	14.6	261	2490	442	323	2770	4690	6.4	1660	CCCCCCCCCCc1ccc2c(c1)C[C@@H](CO)NC(=O)[C@H](C(C)C)N2C	0.31	3.04	0.33	6.7	17.6	11.3	
1100	> 10000	17600	262	1160	22000	> 10000	> 10000	> 10000	70600	> 10000	120	6320	CCCCCCCCCCc1ccc2c(c1)C[C@@H](CO)OC(=O)[C@H](C(C)C)N2C	0.11	0.2		0.8	5	1.9	Activity (HL-60 [20]): 0.19 nM min-1 ml-1
													CC(C)[C@H]1C(=O)N[C@H](CO)Cc2c[nH]c3cccc(c23)N1C [INDOLACTUM]	3.19	3.18	0.05	33.5		28.9	Activity (HL-60 [21]): 16.8%
													CCCCCCCCCCCCCC(=O)O[C@@H]1[C@@H](C)[C@@]2(O)[C@@H](C=C(CO)C[C@]3(O)C(=O)C(C)=C[C@@H]23)[C@@H]2C(C)(C)[C@]12OC(C)=O [PHORBOL MYRISTATE ACETATE]			1.32				
